Experimental data: ChEMBL document CHEMBL1201862, “PubChem BioAssay data set” (2004)
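Five compound concentrations were applied to cells in 96-well plates for 48 hours; endpoints were derived by simple linear interpolation of the resulting dose-response curve. GI50 = concentration required for 50% inhibition of growth.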 Activity calls are given as the source filed them. Rule as the data show it: active = GI50 up to about 1.1 µM and inactive = higher.

Tests used:
Assay in all cases: growth of human tumour cells (NCI), 48 h
[1] = test system: SNB-75
[2] = test system: K562
[3] = test system: SN12C
[4] = test system: 786-0
[5] = test system: KM12
[6] = test system: PC-3
[7] = test system: Hs-578T
[8] = test system: COLO 205
[9] = test system: NCI-H226
[10] = test system: TK-10
[11] = test system: EKVX
[12] = test system: HL-60
[13] = test system: M14
[14] = test system: HT-29
[15] = test system: T47D
[16] = test system: SK-MEL-5
[17] = test system: UACC-257
[18] = test system: ACHN
[19] = test system: SK-MEL-2
[20] = test system: OVCAR-3

Measured: GI50

FC(F)(F)c1ccccc1C1SCC2=Nc3ccccc3CN21 (stereo not given)
inactive: [1] 14 µM | [2] 21.8 µM | [3] 27 µM | [4] 11.9 µM | [5] 12.9 µM | [6] 14.1 µM | [7] 12.3 µM | [8] 12.5 µM | [9] 12.6 µM | [10] 14.4 µM | [11] 12 µM | [12] 21.3 µM | [13] 12.2 µM | [14] 16.4 µM | [15] 16.8 µM | [16] 14.7 µM | [17] 15.9 µM

CC(=O)N1c2ccccc2C23CCN(C)CC4C(C)OCC(C4CC2=O)C13 (stereo not given)
inactive: [1] > 100 µM | [2] > 100 µM | [18] > 100 µM | [3] > 100 µM | [4] > 100 µM | [5] > 100 µM | [6] > 100 µM | [7] > 100 µM | [8] > 100 µM | [9] > 100 µM | [10] > 100 µM | [11] > 100 µM | [19] > 100 µM | [12] > 100 µM | [13] > 100 µM | [14] > 100 µM | [15] > 100 µM | [16] > 100 µM | [17] > 100 µM

OCC12C3C4C5C3C1C5C42 (stereo not given)
inactive: [1] > 100 µM | [2] > 100 µM | [18] > 100 µM | [3] > 100 µM | [4] > 100 µM | [20] > 100 µM | [6] > 100 µM | [7] > 100 µM | [8] > 100 µM | [9] > 100 µM | [10] > 100 µM | [11] > 100 µM | [19] > 100 µM | [12] > 100 µM | [13] > 100 µM | [14] > 100 µM | [15] > 100 µM | [16] > 100 µM | [17] > 100 µM

N#CCN(Cc1ccccc1)[C@H]1CCC[C@]1(O)/C=C/c1ccc2c(c1)OCO2
inactive: [1] 28.4 µM | [2] 24.5 µM | [18] 42 µM | [4] 17.4 µM | [5] 20 µM | [20] 5.41 µM | [6] 16.8 µM | [7] 17.2 µM | [8] 15.6 µM | [9] 18.4 µM | [10] 42.9 µM | [11] 76.9 µM | [19] 20 µM | [12] 16.2 µM | [13] 16.5 µM | [14] 16 µM | [15] 19.3 µM | [16] 16.5 µM | [17] 22.7 µM

CC(=O)O[C@H]1C[C@H]2[C@@H](OC(C)=O)/C=C3\C[C@](C)(C(=O)[C@H](O)C(=C1C)C2(C)C)[C@@H](O)C[C@@H]3OC(=O)[C@H](O)[C@H](c1ccccc1)N(C)C
inactive: [1] > 100 µM | [2] > 100 µM | [18] > 100 µM | [3] > 100 µM | [4] > 100 µM | [5] > 100 µM | [20] > 100 µM | [6] > 100 µM | [7] > 100 µM | [8] > 100 µM | [9] > 100 µM | [10] > 100 µM | [11] > 100 µM | [12] > 100 µM | [13] > 100 µM | [15] > 100 µM | [16] > 100 µM | [17] > 100 µM

COC(=O)[C@@H](Cc1ccccc1)N1O[C@]12CCCC[C@@H]2NC(=O)OC(C)(C)C (stereo not given in full)
inactive: [1] 30.4 µM | [2] 40.1 µM | [18] 18.5 µM | [3] 32.3 µM | [4] 26.1 µM | [5] 48 µM | [20] 21.9 µM | [6] 25.6 µM | [7] 21.6 µM | [8] 26.7 µM | [9] 47.3 µM | [10] 25.1 µM | [11] 27.9 µM | [19] 20.4 µM | [13] 19.1 µM | [14] 18.3 µM | [15] 24.7 µM | [16] 19.5 µM | [17] 36.4 µM

O=C1C=C(N2CCCC2)C(=O)c2c(O)ccc(O)c21
inactive: [1] > 10 µM | [2] 2.92 µM | [18] > 10 µM | [3] > 10 µM | [4] > 10 µM | [5] > 10 µM | [20] > 10 µM | [6] > 10 µM | [7] > 10 µM | [9] > 10 µM | [10] > 10 µM | [11] > 10 µM | [19] > 10 µM | [12] 4.52 µM | [13] 6.32 µM | [14] > 10 µM | [15] > 10 µM | [16] 4.6 µM | [17] > 10 µM
